From the NIST ThermoML archive (doi:10.1021/je100610v)

What was measured:
[1] = 101 kPa, Liquid; for speed of sound: Pulse-echo method
[2] = molar heat capacity at constant pressure; conditions: 101 kPa, Liquid
[3] = xn = mol fraction of the nth substance listed; conditions: 101 kPa, Liquid, x2 = 0; for speed of sound: Pulse-echo method

CCCCCCC [heptane]
[1]
Conditions	mass density [kg/m3]	speed of sound [m/s]
292.7 K	–	1154.1
293.15 K	683.79	–
298 K	–	1131.1
298.15 K	679.56	–
302.98 K	–	1109.5
303.15 K	675.3	–
308.06 K	–	1087.4
308.15 K	671.02	–
313.15 K	666.71	–
313.45 K	–	1064.3

ClCCCCCCCl [1,6-dichlorohexane]
Conditions	mass density [kg/m3]	molar heat capacity at constant pressure [J/K/mol]	speed of sound [m/s]
[1], 293.01 K	–	–	1337.8
[1], 293.15 K	1068.33	–	–
[1], 298.15 K	1063.61	–	–
[1], 298.18 K	–	–	1319.7
[1], 303.15 K	1058.87	–	1302.4
[1], 308.14 K	–	–	1285
[1], 308.15 K	1054.14	–	–
[1], 313.15 K	1049.39	–	–
[1], 313.23 K	–	–	1267.4
[2], 293.15 K	–	239.21	–
[2], 294.15 K	–	239.5	–
[2], 295.15 K	–	239.69	–
[2], 296.15 K	–	240.02	–
[2], 297.15 K	–	240.35	–
[2], 298.15 K	–	240.64	–
[2], 299.15 K	–	240.85	–
[2], 300.15 K	–	241.15	–
[2], 301.15 K	–	241.46	–
[2], 302.15 K	–	241.8	–
[2], 303.15 K	–	242.06	–
[2], 304.15 K	–	242.34	–
[2], 305.15 K	–	242.62	–
[2], 306.15 K	–	242.83	–
[2], 307.15 K	–	243.21	–
[2], 308.15 K	–	243.49	–
[2], 309.15 K	–	243.73	–
[2], 310.15 K	–	244	–
[2], 311.15 K	–	244.35	–
[2], 312.15 K	–	244.68	–
[2], 313.15 K	–	244.91	–

CCCCCCC [heptane] + ClCCCCCCCl
[3]
Conditions	mass density [kg/m3]	speed of sound [m/s]
292.7 K	–	1154.1
293.15 K	683.79	–
298 K	–	1131.1
298.15 K	679.56	–
302.98 K	–	1109.5
303.15 K	675.3	–
308.06 K	–	1087.4
308.15 K	671.02	–
313.15 K	666.71	–
313.45 K	–	1064.3
